Measured values reported in patent US10875874B2, “Ginkgolide B derivative and preparation method and use thereof” (Chengdu Baiyu Ginkgolide Pharmaceuticals Co., Ltd., priority 2015, dated 2020).
In brackets after ≈: the same amount, converted by molar mass. Marks after values point to notes of the source that are not given here.

Key:
[1] = Weekly food intake of SHR rats; type: in vivo, rat
How it was run: (§1)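 Male and female SHR rats (200-250 g, 8/group) dosed intragastrically once daily for 8 weeks with test compounds at 60 or 120 mg/kg/d or captopril 27 mg/kg; Wistar and SHR controls received distilled water. Body weight and food intake observed during treatment.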

[2] = tested on: spontaneously hypertensive rats (SHR); assay: Caudal artery systolic pressure of spontaneously hypertensive rats, single administration; type: in vivo, rat; conditions: x ± s, n = 8
How it was run: (§2)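 SHR rats of both sexes (200–250 g, 8/group) dosed intragastrically with 60 or 120 mg/kg/d, or captopril 27 mg/kg, once daily for 8 weeks; Wistar rats and vehicle SHR served as controls. Tail-cuff systolic pressure taken as the mean of 3 readings, measured before dosing and 30–120 min after the first dose, or 30 min post-dose on days 1–56 for chronic treatment.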

Water solubility test = conditions: purified water, thermodynamic from solid
Procedure: Measuring method: samples are ground to obtain fine powder, target compounds are quantitatively weighed, the weighed compounds are added into purified water, and the solubility of the compounds is investigated by ultrasonics.

[3] = tested on: spontaneously hypertensive rats (SHR); assay: Caudal artery systolic pressure of spontaneously hypertensive rats, 8 weeks of continuous medication; type: in vivo, rat; conditions: x ± s, n = 8
How it was run: as §2

[4] = Weekly body weight of SHR rats; type: in vivo, rat
How it was run: as §1

[5] = 60 mg/kg/d intragastric, week 0
[6] = 60 mg/kg/d intragastric, week 1
[7] = 60 mg/kg/d intragastric, week 2
[8] = 60 mg/kg/d intragastric, week 3
[9] = 60 mg/kg/d intragastric, week 4
[10] = 60 mg/kg/d intragastric, week 5
[11] = 60 mg/kg/d intragastric, week 6
[12] = 60 mg/kg/d intragastric, week 7
[13] = 60 mg/kg/d intragastric, week 8
[14] = 120 mg/kg/d intragastric, week 0
[15] = 120 mg/kg/d intragastric, week 1
[16] = 120 mg/kg/d intragastric, week 2
[17] = 120 mg/kg/d intragastric, week 3
[18] = 120 mg/kg/d intragastric, week 4
[19] = 120 mg/kg/d intragastric, week 5
[20] = 120 mg/kg/d intragastric, week 6
[21] = 120 mg/kg/d intragastric, week 7
[22] = 120 mg/kg/d intragastric, week 8
[23] = 60 mg/kg intragastric single administration, 30 min
[24] = 60 mg/kg intragastric single administration, 60 min
[25] = 60 mg/kg intragastric single administration, 90 min
[26] = 60 mg/kg intragastric single administration, 120 min
[27] = 60 mg/kg intragastric single administration, before administration
[28] = 120 mg/kg intragastric single administration, 30 min
[29] = 120 mg/kg intragastric single administration, 60 min
[30] = 120 mg/kg intragastric single administration, 90 min
[31] = 120 mg/kg intragastric single administration, 120 min
[32] = 120 mg/kg intragastric single administration, before administration
[33] = 60 mg/kg/d intragastric continuous, 1 d, 30 min after administration
[34] = 60 mg/kg/d intragastric continuous, 7 d, 30 min after administration
[35] = 60 mg/kg/d intragastric continuous, 13 d, 30 min after administration
[36] = 60 mg/kg/d intragastric continuous, 19 d, 30 min after administration
[37] = 60 mg/kg/d intragastric continuous, 25 d, 30 min after administration
[38] = 60 mg/kg/d intragastric continuous, 35 d, 30 min after administration
[39] = 60 mg/kg/d intragastric continuous, 49 d, 30 min after administration
[40] = 60 mg/kg/d intragastric continuous, 56 d, 30 min after administration
[41] = 60 mg/kg/d intragastric continuous, before administration
[42] = 120 mg/kg/d intragastric continuous, 1 d, 30 min after administration
[43] = 120 mg/kg/d intragastric continuous, 7 d, 30 min after administration
[44] = 120 mg/kg/d intragastric continuous, 13 d, 30 min after administration
[45] = 120 mg/kg/d intragastric continuous, 19 d, 30 min after administration
[46] = 120 mg/kg/d intragastric continuous, 25 d, 30 min after administration
[47] = 120 mg/kg/d intragastric continuous, 35 d, 30 min after administration
[48] = 120 mg/kg/d intragastric continuous, 49 d, 30 min after administration
[49] = 120 mg/kg/d intragastric continuous, 56 d, 30 min after administration
[50] = 120 mg/kg/d intragastric continuous, before administration

Compound: C[C@@H]1C(=O)O[C@H]2[C@H](O)[C@@]34C5C[C@@H](C(C)(C)C)C36[C@@H](OC(=O)[C@@H]6OC(=O)[C@H](c3ccccc3Cl)N3CCc6sccc6C3)O[C@@]4(C(=O)O5)[C@@]12O (stereo partly shown) [BL]
- Average dairy food intake [1, 5]: 18.4 g/day
- Average dairy food intake [1, 6]: 19.4^▴ g/d
- Average dairy food intake [1, 7]: 20.5^▴▴ g/d
- Average dairy food intake [1, 8]: 21.0^▴▴ g/d
- Average dairy food intake [1, 9]: 20.9^▴▴ g/d
- Average dairy food intake [1, 10]: 21.9^▴▴ g/d
- Average dairy food intake [1, 11]: 23.5^▴▴ g/d
- Average dairy food intake [1, 12]: 24.5^▴▴ g/d
- Average dairy food intake [1, 13]: 25.1^▴▴ g/d
- Average dairy food intake [1, 14]: 18.6 g/day
- Average dairy food intake [1, 15]: 20.0^▴ g/d
- Average dairy food intake [1, 16]: 20.8^▴▴ g/d
- Average dairy food intake [1, 17]: 21.9^▴▴ g/d
- Average dairy food intake [1, 18]: 22.7^▴▴ g/d
- Average dairy food intake [1, 19]: 23.5^▴▴ g/d
- Average dairy food intake [1, 20]: 24.6^▴▴ g/d
- Average dairy food intake [1, 21]: 25.1^▴▴ g/d
- Average dairy food intake [1, 22]: 26.7^▴▴ g/d
- Systolic pressure [2, 23]: 158.36 ± 10.54 mmHg
- Systolic pressure [2, 24]: 154.68 ± 12.48 mmHg
- Systolic pressure [2, 25]: 152.74 ± 12.58 mmHg
- Systolic pressure [2, 26]: 152.04 ± 10.02 mmHg
- Systolic pressure [2, 27]: 165.68 ± 16.35 mmHg
- Systolic pressure [2, 28]: 148.01 ± 5.98 mmHg
- Systolic pressure [2, 29]: 151.36 ± 9.45 mmHg
- Systolic pressure [2, 30]: 152.95 ± 12.54 mmHg
- Systolic pressure [2, 31]: 151.98 ± 9.26 mmHg
- Systolic pressure [2, 32]: 164.25 ± 11.69 mmHg
- solubility (Water solubility test): 200 µg/mL (≈ 280 µM)
- Systolic pressure [3, 33]: 154.08 ± 11.54 mmHg
- Systolic pressure [3, 34]: 156.92 ± 9.82 mmHg
- Systolic pressure [3, 35]: 156.07 ± 8.52 mmHg
- Systolic pressure [3, 36]: 153.96 ± 11.07 mmHg
- Systolic pressure [3, 37]: 154.57 ± 9.74 mmHg
- Systolic pressure [3, 38]: 153.67 ± 11.58 mmHg
- Systolic pressure [3, 39]: 149.68 ± 10.42 mmHg
- Systolic pressure [3, 40]: 153.62 ± 9.47 mmHg
- Systolic pressure [3, 41]: 165.68 ± 16.35 mmHg
- Systolic pressure [3, 42]: 153.56 ± 8.15 mmHg
- Systolic pressure [3, 43]: 152.74 ± 10.25 mmHg
- Systolic pressure [3, 44]: 149.52 ± 10.24 mmHg
- Systolic pressure [3, 45]: 149.05 ± 11.09 mmHg
- Systolic pressure [3, 46]: 147.09 ± 12.68 mmHg
- Systolic pressure [3, 47]: 147.52 ± 10.64 mmHg
- Systolic pressure [3, 48]: 150.94 ± 11.06 mmHg
- Systolic pressure [3, 49]: 149.76 ± 12.63 mmHg
- Systolic pressure [3, 50]: 164.25 ± 11.69 mmHg
- Body weight [4, 5]: 230.9 g
- Body weight [4, 6]: 236.4 g
- Body weight [4, 7]: 243.1 g
- Body weight [4, 8]: 252.8 g
- Body weight [4, 9]: 260.9^▴▴ g
- Body weight [4, 10]: 265.8^▴▴ g
- Body weight [4, 11]: 270.6^▴ g
- Body weight [4, 12]: 277.3^▴▴ g
- Body weight [4, 13]: 285.4^▴▴ g
- Body weight [4, 14]: 230.6 g
- Body weight [4, 15]: 251.8^▴▴ g
- Body weight [4, 16]: 257.3^▴▴ g
- Body weight [4, 17]: 264.1^▴▴ g
- Body weight [4, 18]: 270.5^▴▴ g
- Body weight [4, 19]: 281.7^▴▴ g
- Body weight [4, 20]: 290.3^▴▴ g
- Body weight [4, 21]: 302.8^▴▴ g
- Body weight [4, 22]: 315.2^▴▴ g

Compound: CC(=O)Oc1ccccc1C(=O)O[C@H]1C(=O)O[C@H]2O[C@]34C(=O)OC5C[C@@H](C(C)(C)C)C21[C@@]53[C@@H](O)[C@@H]1OC(=O)[C@@H](C)[C@@]14O (stereo partly shown) [BA]
- Average dairy food intake [1, 5]: 17.9 g/day
- Average dairy food intake [1, 6]: 18.6^▴ g/d
- Average dairy food intake [1, 7]: 19.8^▴ g/d
- Average dairy food intake [1, 8]: 19.6^▴ g/d
- Average dairy food intake [1, 9]: 18.9^▴ g/d
- Average dairy food intake [1, 10]: 20.7^▴▴ g/d
- Average dairy food intake [1, 11]: 22.3^▴▴ g/d
- Average dairy food intake [1, 12]: 24.6^▴▴ g/d
- Average dairy food intake [1, 13]: 25.5^▴▴ g/d
- Average dairy food intake [1, 14]: 18.1 g/day
- Average dairy food intake [1, 15]: 19.8^▴ g/d
- Average dairy food intake [1, 16]: 20.1^▴▴ g/d
- Average dairy food intake [1, 17]: 20.8^▴▴ g/d
- Average dairy food intake [1, 18]: 21.6^▴▴ g/d
- Average dairy food intake [1, 19]: 23.0^▴▴ g/d
- Average dairy food intake [1, 20]: 24.5^▴▴ g/d
- Average dairy food intake [1, 21]: 25.9^▴▴ g/d
- Average dairy food intake [1, 22]: 27.8^▴▴ g/d
- Systolic pressure [2, 23]: 161.36 ± 9.52 mmHg
- Systolic pressure [2, 24]: 159.62 ± 14.25 mmHg
- Systolic pressure [2, 25]: 152.56 ± 11.26 mmHg
- Systolic pressure [2, 26]: 159.87 ± 11.32 mmHg
- Systolic pressure [2, 27]: 165.35 ± 11.62 mmHg
- Systolic pressure [2, 28]: 149.69 ± 11.62 mmHg
- Systolic pressure [2, 29]: 155.68 ± 17.35 mmHg
- Systolic pressure [2, 30]: 161.30 ± 15.64 mmHg
- Systolic pressure [2, 31]: 158.25 ± 15.61 mmHg
- Systolic pressure [2, 32]: 163.64 ± 10.31 mmHg
- solubility (Water solubility test): 220 µg/mL (≈ 375 µM)
- Systolic pressure [3, 33]: 155.29 ± 10.98 mmHg
- Systolic pressure [3, 34]: 158.73 ± 13.82 mmHg
- Systolic pressure [3, 35]: 153.64 ± 9.75 mmHg
- Systolic pressure [3, 36]: 154.85 ± 9.74 mmHg
- Systolic pressure [3, 37]: 151.36 ± 10.58 mmHg
- Systolic pressure [3, 38]: 153.72 ± 13.68 mmHg
- Systolic pressure [3, 39]: 151.70 ± 13.10 mmHg
- Systolic pressure [3, 40]: 153.72 ± 12.54 mmHg
- Systolic pressure [3, 41]: 165.35 ± 11.62 mmHg
- Systolic pressure [3, 42]: 151.48 ± 9.85 mmHg
- Systolic pressure [3, 43]: 150.95 ± 9.68 mmHg
- Systolic pressure [3, 44]: 145.30 ± 11.62 mmHg
- Systolic pressure [3, 45]: 142.39 ± 12.49 mmHg
- Systolic pressure [3, 46]: 145.84 ± 11.46 mmHg
- Systolic pressure [3, 47]: 143.67 ± 115.62 mmHg
- Systolic pressure [3, 48]: 140.69 ± 14.72 mmHg
- Systolic pressure [3, 49]: 139.88 ± 13.04 mmHg
- Systolic pressure [3, 50]: 163.64 ± 10.31 mmHg
- Body weight [4, 5]: 228.5 g
- Body weight [4, 6]: 233.6 g
- Body weight [4, 7]: 244.8^▴ g
- Body weight [4, 8]: 251.4 g
- Body weight [4, 9]: 257.3 g
- Body weight [4, 10]: 263.7^▴ g
- Body weight [4, 11]: 269.6^▴ g
- Body weight [4, 12]: 281.8^▴▴ g
- Body weight [4, 13]: 292.8^▴▴ g
- Body weight [4, 14]: 231.6 g
- Body weight [4, 15]: 251.4^▴▴ g
- Body weight [4, 16]: 257.6^▴▴ g
- Body weight [4, 17]: 264.1^▴▴ g
- Body weight [4, 18]: 271.2^▴▴ g
- Body weight [4, 19]: 280.6^▴▴ g
- Body weight [4, 20]: 291.2^▴▴ g
- Body weight [4, 21]: 305.9^▴▴ g
- Body weight [4, 22]: 320.4^▴▴ g
